Test systems include XF498; RXF 631; DMS-273; RXF 393; MDA-MB-231; PC-3; 786-0; T47D; Hs-578T.
What all share (assay): NCI-60 cell line screen, 48 h

Experimental findings from ChEMBL document CHEMBL1201862, “PubChem BioAssay data set” (2004) are described below.

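Compound exposure: 48 hours, 5 concentrations, 96-well plates. GI50 is the concentration that inhibits growth by half.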 Active and inactive are the calls of the source. No stated cut-off is given here; in the data, active = GI50 up to about 1.1 µM and inactive = higher.

As to `CCOC(=O)C(=CNC(Cc1c[nH]c2ccccc12)C(=O)OC)C(=O)OCC` (stereo not given), the GI50 in the assay on XF498 and in the assay on RXF 631 was > 100 µM (inactive) each time.
For `CC1C(=O)OC2CC[N+]3(CC(=O)c4ccc(Br)cc4)CC=C(COC(=O)C(C)(O)C1(C)O)C23` (stereo not given), the GI50 in the assay with DMS-273 was > 128 µM (inactive); in the assay on XF498, 259 µM (inactive); in the assay with RXF 393, > 375 µM (inactive).
Regarding `O=c1[nH]nc(NCc2ccccc2)c2nnn(Cc3ccccc3)c12`, the GI50 in the assay with MDA-MB-231 and in the assay with PC-3 was > 100 µM (inactive) each time.
As for `C#CCOc1c(C(=O)OCC)c(=O)n(C)c2ccccc12`, the GI50 is 72.6 µM (inactive) in the assay on XF498 and > 100 µM (inactive) in the assay on RXF 631.
Take `O=C(N/C(=C\c1cccc([N+](=O)[O-])c1)c1nc2c(O)nc(S)nc2[nH]1)c1ccccc1`: the GI50 in the assay on XF498 was > 100 µM (inactive); in the assay with 786-0 it was > 100 µM (inactive); with RXF 393 it was 45.5 µM (inactive); in the assay on RXF 631, > 100 µM (inactive).
Turning to `CN(C)CCNC(=O)Cn1ccc(=O)c2ccc([N+](=O)[O-])cc21`, the GI50 in the assay on PC-3, in the assay with 786-0, in the assay with RXF 393, in the assay with T47D and in the assay with Hs-578T was > 100 µM (inactive) in each case.
Take `NC(CCOCCP(=O)(O)O)C(=O)O` (stereo not given): the GI50 in the assay on MDA-MB-231 was > 100 µM (inactive); in the assay with PC-3 it was > 100 µM (inactive); in the assay on RXF 393, > 100 µM (inactive); with T47D it was 57.7 µM (inactive); in the assay with Hs-578T it was > 100 µM (inactive).
For the compound `CCCOc1nc(N)c2cnn(C3CCCCO3)c2n1` (stereo not given), the GI50 with DMS-273, in the assay with 786-0 and in the assay with RXF 393 was > 100 µM (inactive) throughout.
Take `Cc1n[nH]c(N)c1C(N)=O`: the GI50 with DMS-273 was > 100 µM (inactive); in the assay with XF498, > 100 µM (inactive); with RXF 393 it was 21.5 µM (inactive).
Take `CCOC(=O)/C(=C\NC#N)c1nc2ccccc2[nH]1`: the GI50 in the assay with 786-0 and in the assay on RXF 393 was > 100 µM (inactive) throughout.
`O=C1NC(=O)C2(CCc3ccc(N(CCCl)CCCl)cc32)N1` (stereo not given): the GI50 in the assay on DMS-273 is 2.94 µM (inactive); in the assay on RXF 393 it was 6.7 µM (inactive).
`C[Si](C)(OCCS(=O)(=O)O)C1(Cc2cccc3ccccc23)S(=O)(=O)OCCOS1(=O)=O`: the GI50 with MDA-MB-231 is 18.1 µM (inactive); in the assay on PC-3, 19 µM (inactive); in the assay with T47D it was 17.1 µM (inactive); with Hs-578T it was 33.2 µM (inactive).
With `O=S(=O)(O)c1ccc(-c2c3nc(c(-c4ccc(S(=O)(=O)O)cc4)c4ccc([nH]4)c(-c4ccc(S(=O)(=O)O)cc4)c4nc(c(-c5ccc(S(=O)(=O)O)cc5)c5ccc2[nH]5)C=C4)C=C3)cc1`, the GI50 is 20.9 µM (inactive) in the assay on MDA-MB-231; > 100 µM (inactive) in the assay with PC-3; > 100 µM (inactive) in the assay with 786-0; 26.9 µM (inactive) in the assay on RXF 393; 33 µM (inactive) in the assay with T47D; 13.9 µM (inactive) in the assay with Hs-578T.
Turning to `CC1C(O)[C@@]2(OC[C@@]34C(=O)CC5(O)[C@H](CCC6Cc7nc8c(nc7C[C@]65C)CC5CC[C@@H]6C7=C[C@H]9O[C@@]%10(O[C@@](C)(CO)C[C@@H]%10O)C(C)[C@@]9(O)[C@]7(C)[C@@H](O)CC6[C@]5(C)C8)C3=CC[C@H]4C2C)OC1(C)C` (stereo not given in full), the GI50 in the assay on DMS-273 and with RXF 393 was < 0.000355 µM (active) each time.
Regarding `OC[C@H]1NC[C@@H](O)[C@@H](O)[C@H]1O`, the GI50 in the assay with MDA-MB-231, with PC-3, in the assay with RXF 393, with T47D and in the assay with Hs-578T was > 100 µM (inactive) each time.
